Active and inactive are the calls of the source. The rule behind the calls is not given here.
Assays:
Mus musculus [1] = experiment: Induction of tumor microenvironment in female BALB/c mouse implanted with mouse orthotopic 4T1-Luc cells assessed as m1 macrophage polarization by measuring upregulation of conventional dendritic cells at 1 to 10 mg/kg, iv administered via tail vein every 2 days for 9 times for 17 days by single-cell mass spectrometry flow cytometry analysis; assay type: functional, organism-based; settings: dose 1-10 mg/kg, time 17.0 day
Mus musculus [2] = experiment: Induction of tumor microenvironment in female BALB/c mouse implanted with mouse orthotopic 4T1-Luc cells assessed as decrease in proportion of MHC-II-negative tumor-associated neutrophils at 1 to 10 mg/kg, iv administered via tail vein every 2 days for 9 times for 17 days by single-cell mass spectrometry flow cytometry analysis; assay type: functional, organism-based; settings: dose 1-10 mg/kg, time 17.0 day
4T1-Luc [3] = experiment: Antitumor activity against mouse orthotopic 4T1-Luc cells implanted in iv dosed female BALB/c mouse assessed as reduction in tumor volume administered via tail vein every 2 days for 9 times for 17 days and measured every 2 days; assay type: functional, organism-based; settings: dose 1-10 mg/kg, time 17.0 day
MDA-MB-468 = experiment: Antiproliferative activity against human MDA-MB-468 cells assessed as inhibition of cell growth incubated for 48 hrs by MTT assay; assay type: functional, cell-based; settings: MDA-MB-468, 48 h
Neutrophil = experiment: In vivo inhibition of PAD4 in female BALB/c mouse implanted with mouse orthotopic 4T1-Luc cells assessed as inhibition of neutrophil extracellular traps formation in tumor at 10 mg/kg, iv administered via tail vein every 2 days for 9 times for 17 days by immunohistochemical staining based analysis; assay type: functional, organism-based; settings: time 17.0 day
[4] = Toxicity in female BALB/c mouse implanted with mouse orthotopic 4T1-Luc cells assessed as effect on serum creatinine level at 1 to 10 mg/kg, iv administered via tail vein every 2 days for 9 times for 17 days; assay type: organism-based; settings: in vivo, 408 h, dose 1-10 mg/kg, time 17 day
[5] = Toxicity in female BALB/c mouse implanted with mouse orthotopic 4T1-Luc cells assessed as reduction in body weight at 1 to 10 mg/kg, iv administered via tail vein every 2 days for 9 times for 17 days and measured every 2 days; assay type: organism-based; settings: in vivo, 408 h, dose 1-10 mg/kg, time 17 day
4T1-Luc [6] = experiment: Antimetastatic activity against mouse orthotopic 4T1-Luc cells implanted in iv dosed female BALB/c mouse assessed as reduction in lung metastasis administered via tail vein every 2 days for 9 times for 17 days by IVIS live cell imaging analysis; assay type: functional, organism-based; settings: dose 1-10 mg/kg, time 17.0 day
[7] = AUC (0 to infinity) in male Sprague-Dawley rat at 3.5 mg/kg, iv by LC-MS/MS analysis; assay type: ADME, organism-based; settings: in vivo
Mus musculus [8] = experiment: Induction of tumor microenvironment in female BALB/c mouse implanted with mouse orthotopic 4T1-Luc cells assessed as increase in proportion of MHC-II-positive tumor-associated neutrophils at 1 to 10 mg/kg, iv administered via tail vein every 2 days for 9 times for 17 days by single-cell mass spectrometry flow cytometry analysis; assay type: functional, organism-based; settings: dose 1-10 mg/kg, time 17.0 day
Mus musculus [9] = experiment: In vivo inhibition of PAD4 in female BALB/c mouse implanted with mouse orthotopic 4T1-Luc cells assessed as inhibition of histone H3 citrullination in tumor at 10 mg/kg, iv administered via tail vein every 2 days for 9 times for 17 days by immunohistochemical staining based analysis; assay type: functional, organism-based; settings: time 17.0 day
4T1-Luc [10] = experiment: Antitumor activity against mouse orthotopic 4T1-Luc cells implanted in iv dosed female BALB/c mouse assessed as reduction in tumor weight administered via tail vein every 2 days for 9 times for 17 days and measured every 2 days; assay type: functional, organism-based; settings: dose 1-10 mg/kg, time 17.0 day
[11] = Cmax in male Sprague-Dawley rat at 3.5 mg/kg, iv by LC-MS/MS analysis; assay type: ADME, organism-based; settings: in vivo
[12] = molecular target: Protein-arginine deiminase type-2 (Homo sapiens, UniProt Q9Y2J8); experiment: Inhibition of PAD2 (unknown origin) using Nalpha-benzoyl-L-arginine ethyl ester as substrate preincubated for 60 mins followed by substrate addition and measured after 90 mins by colorimetric analysis
Protein-arginine deiminase type-2, sequence (Q9Y2J8 whole entry): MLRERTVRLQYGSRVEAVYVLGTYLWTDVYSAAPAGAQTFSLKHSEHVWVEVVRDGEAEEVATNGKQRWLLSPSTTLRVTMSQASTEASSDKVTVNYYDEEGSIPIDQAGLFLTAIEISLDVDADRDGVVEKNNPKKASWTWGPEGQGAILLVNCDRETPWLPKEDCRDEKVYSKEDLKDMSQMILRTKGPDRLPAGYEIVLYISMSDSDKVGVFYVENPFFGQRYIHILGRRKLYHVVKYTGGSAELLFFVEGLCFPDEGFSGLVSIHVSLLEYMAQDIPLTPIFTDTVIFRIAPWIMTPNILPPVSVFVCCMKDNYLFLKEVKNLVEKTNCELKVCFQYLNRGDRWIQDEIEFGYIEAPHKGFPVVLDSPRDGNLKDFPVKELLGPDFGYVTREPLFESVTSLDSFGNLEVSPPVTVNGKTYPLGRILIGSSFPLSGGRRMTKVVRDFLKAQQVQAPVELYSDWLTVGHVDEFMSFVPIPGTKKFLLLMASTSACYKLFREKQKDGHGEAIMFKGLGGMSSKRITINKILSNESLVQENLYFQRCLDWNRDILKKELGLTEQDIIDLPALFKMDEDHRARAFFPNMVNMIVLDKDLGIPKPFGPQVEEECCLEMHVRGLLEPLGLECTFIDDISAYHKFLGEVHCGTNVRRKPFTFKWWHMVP

[13] = Toxicity in female BALB/c mouse implanted with mouse orthotopic 4T1-Luc cells assessed as effect on serum AST level at 1 to 10 mg/kg, iv administered via tail vein every 2 days for 9 times for 17 days; assay type: organism-based; settings: in vivo, 408 h, dose 1-10 mg/kg, time 17 day
[14] = molecular target: Protein-arginine deiminase type-4 (Mus musculus) (UniProt Q9Z183); experiment: Inhibition of PAD4 in BALB/c mouse bone marrow neutrophils assessed as reduction in neutrophil extracellular traps formation at 2 uM preincubated for 2 hrs followed by calcium ionophore A23187 addition and measured after 2 hrs by Hoechst 33342/Ly6G staining based laser confocal microscopic analysis; assay type: tissue-based; settings: time 4.0 hrs
Protein-arginine deiminase type-4 (Mus musculus), sequence (Q9Z183 whole entry): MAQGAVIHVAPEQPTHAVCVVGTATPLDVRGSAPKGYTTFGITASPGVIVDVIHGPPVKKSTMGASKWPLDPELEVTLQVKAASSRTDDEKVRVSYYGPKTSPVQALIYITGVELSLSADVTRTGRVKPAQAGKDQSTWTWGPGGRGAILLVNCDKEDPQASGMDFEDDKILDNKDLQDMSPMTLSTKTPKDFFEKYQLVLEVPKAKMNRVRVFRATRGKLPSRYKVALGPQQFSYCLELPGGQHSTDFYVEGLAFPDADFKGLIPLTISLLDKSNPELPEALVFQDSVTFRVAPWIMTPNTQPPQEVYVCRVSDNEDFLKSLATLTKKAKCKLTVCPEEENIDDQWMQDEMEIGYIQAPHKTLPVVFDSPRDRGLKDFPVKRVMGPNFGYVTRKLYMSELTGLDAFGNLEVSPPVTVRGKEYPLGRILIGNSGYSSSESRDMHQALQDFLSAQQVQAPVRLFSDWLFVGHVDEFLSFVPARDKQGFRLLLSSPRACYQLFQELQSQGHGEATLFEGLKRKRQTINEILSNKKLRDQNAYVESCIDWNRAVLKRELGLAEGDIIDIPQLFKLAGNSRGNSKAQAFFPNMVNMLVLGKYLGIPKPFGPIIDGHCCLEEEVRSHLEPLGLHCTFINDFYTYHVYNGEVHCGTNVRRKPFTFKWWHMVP

[15] = Clearance in male Sprague-Dawley rat at 3.5 mg/kg, iv by LC-MS/MS analysis; assay type: ADME, organism-based; settings: in vivo
4T1 [16] = experiment: Upregulation of feedback regulation-mediated PAD4 protein expression in mouse 4T1 cells at 0.5 to 2 uM measured after 48 hrs by immunoblot analysis; assay type: functional, cell-based; settings: dose 0.5-2 µM
[17] = molecular target: Protein-arginine deiminase type-4 (Mus musculus) (UniProt Q9Z183); experiment: Inhibition of PAD4 in mouse 4T1 cells assessed as reduction in histone H3 citrullination measured after 48 hrs by immunoblot analysis; assay type: cell-based; settings: dose 0.5-2 µM
4T1-Luc [18] = experiment: Antitumor activity against mouse orthotopic 4T1-Luc cells implanted in female BALB/c mouse assessed as increase in neutrophil infiltration in tumor at 10 mg/kg, iv administered via tail vein every 2 days for 9 times for 17 days by immunohistochemical staining based analysis; assay type: functional, organism-based; settings: time 17.0 day
Mus musculus [19] = experiment: Induction of tumor microenvironment in female BALB/c mouse implanted with mouse orthotopic 4T1-Luc cells assessed as downregulation of myeloid derived suppressive M-MDSC cells at 1 to 10 mg/kg, iv administered via tail vein every 2 days for 9 times for 17 days by single-cell mass spectrometry flow cytometry analysis; assay type: functional, organism-based; settings: dose 1-10 mg/kg, time 17.0 day
4T1 [20] = experiment: Antimetastatic activity in starved mouse 4T1 cells assessed as inhibition of cell migration by measuring reduction in number of metastatic cells incubated for 12 hrs by crystal violet staining based transwell assay; assay type: functional; settings: dose 0.5-2 µM
[21] = Tmax in male Sprague-Dawley rat at 3.5 mg/kg, iv by LC-MS/MS analysis; assay type: ADME, organism-based; settings: in vivo
[22] = Toxicity in female BALB/c mouse implanted with mouse orthotopic 4T1-Luc cells assessed as effect on serum ALT level at 1 to 10 mg/kg, iv administered via tail vein every 2 days for 9 times for 17 days; assay type: organism-based; settings: in vivo, 408 h, dose 1-10 mg/kg, time 17 day
4T1-Luc [23] = experiment: Antimetastatic activity against mouse orthotopic 4T1-Luc cells implanted in iv dosed female BALB/c mouse assessed as reduction in lung metastasis administered via tail vein every 2 days for 9 times for 17 days by H and E staining based analysis; assay type: functional, organism-based; settings: dose 1-10 mg/kg, time 17.0 day
4T1-Luc [24] = experiment: Antitumor activity against mouse orthotopic 4T1-Luc cells implanted in female BALB/c mouse assessed as improvement in animal survival at 10 mg/kg, iv administered via tail vein every 2 days for 9 times for 17 days and measured every 2 days; assay type: functional, organism-based; settings: time 17.0 day
4T1-Luc [25] = experiment: Antimetastatic activity against mouse orthotopic 4T1-Luc cells implanted in iv dosed female BALB/c mouse assessed as reduction in lung metastasis by measuring reduction in metastatic lung nodules administered via tail vein every 2 days for 9 times for 17 days; assay type: functional, organism-based; settings: dose 1-10 mg/kg, time 17.0 day
Mus musculus [26] = experiment: Induction of tumor microenvironment in female BALB/c mouse implanted with mouse orthotopic 4T1-Luc cells assessed as increase in MHC-II expression for MHC-II-negative tumor-associated neutrophils at 1 to 10 mg/kg, iv administered via tail vein every 2 days for 9 times for 17 days; assay type: functional, organism-based; settings: dose 1-10 mg/kg, time 17.0 day
[27] = Toxicity in female BALB/c mouse implanted with mouse orthotopic 4T1-Luc cells assessed as effect on viscero-somatic ratio at 1 to 10 mg/kg, iv administered via tail vein every 2 days for 9 times for 17 days; assay type: organism-based; settings: in vivo, 408 h, dose 1-10 mg/kg, time 17 day
4T1 [28] = experiment: Antiproliferative activity against mouse 4T1 cells assessed as inhibition of cell growth incubated for 48 hrs by MTT assay; assay type: functional, cell-based; settings: 4T1, 48 h

N=C(CCl)NCCC[C@H](NC(=O)c1cc2c([nH]c3ccccc32)c(-c2ccccc2)n1)C(=O)NCc1ccccc1
Activity (Mus musculus [1]): Active | Activity (Mus musculus [2]): Active | Activity (4T1-Luc [3]): Dose-Dependent Effect | IC50 (MDA-MB-468): 2.34 µM | inhibition (Neutrophil): Active | Activity [4]: Non-Toxic | Activity [5]: Non-Toxic | Activity (4T1-Luc [6]): Dose-Dependent Effect | AUC [7]: 17346.55 ng·h/mL | Activity (Mus musculus [8]): Active | inhibition (Mus musculus [9]): Active | Activity (4T1-Luc [10]): Dose-Dependent Effect | Cmax [11]: 297.71 ng/mL | IC50 [12]: 2.97 µM | Activity [13]: Non-Toxic | inhibition [14]: Active | CL [15]: 1754 mL/min/kg | Activity (4T1 [16]): Active | inhibition [17]: Dose-Dependent Effect | Activity (4T1-Luc [18]): Active | Activity (Mus musculus [19]): Active | Activity (4T1 [20]): Dose-Dependent Effect | Tmax [21]: 4.8 min | Activity [22]: Non-Toxic | Activity (4T1-Luc [23]): Dose-Dependent Effect | Activity (4T1-Luc [24]): Active | Activity (4T1-Luc [25]): Dose-Dependent Effect | Activity (Mus musculus [26]): Active | Activity [27]: Non-Toxic | IC50 (4T1 [28]): 2.39 µM
